The experiment concerns osteoclast pregenitor cells. Nature of the experiment: Inhibition rates of furan derivatives versus osteoclast formation (TRAP staining). To be noted: TRAP-positive multinucleated cells, untreated control set as 100%. It is filed as cell-based, mice. Here is the method:
First, bone marrow cells were isolated, as follow. After sacrificing 7-9 week female mice by cervical dislocation, femur and tibia were excised aseptically while removing attached soft tissues. After cutting both ends of long bones, 1 ml of an enzyme solution, containing 0.1% collagenase (Gibco), 0.05% trypsin and 0.5 mM EDTA (Gibco), was injected to the bone marrow cavity at one end using a syringe with a 26-guage needle, and bone marrow was then collected. After shaking the recovered bone marrow for 30 min, bone marrow cells were collected, and cultured in α-minimum essential medium (α-MEM) supplemented with 10% FBS for 24 hrs. Then, non-adherent cells were collected, which are osteoclast pregenitors, aliquotted onto culture plates at a density of 2×10^5 cells per well, and cultured for 8 days in α-MEM supplemented with 20 ng/ml of macrophage-colony stimulating factor (M-CSF, Peprotech, USA) and 30 ng/ml RANKL (Peprotech, USA). During the 8 days of culturing, the cells were treated with the Compound 1. Thereafter, osteoclast formation was investigated by fixing the cultured cells and then carrying out TRAP staining, as described in the following Experimental Example 2.2. In addition, resorption activity of osteoclasts was investigated by measuring the absorption area after removing osteoclasts in cultures in calcium phosphate-coated plates, as described in Experimental Example 2.3, below.
After cell culture, the adherent cells were washed with PBS, and TRAP staining was performed, as follows. After being fixed with citrate-acetate-formaldehyde for 5 min, the cells were incubated for 1 hr in acetate buffer (prewarmed at 37° C., pH 5.0) containing naphthol AS-BI phosphate, fast Garnet GBC and 7 mM tartrate buffer (pH 5.0). TRAP-positive multinucleated cells having 3 or more nuclei were considered as osteoclasts.
Osteoclast pregenitor cells were isolated, and their differentiation to mature osteoclasts was induced, according to the same method as in the Experimental Example 2-1, while treated with each of the furan derivatives of the present invention. According to the same method as in the Experimental Example 2-2, TRAP staining performed, and TRAP-positive multinucleated cells were counted. An inhibition rate of each furan derivative against osteoclast formation was expressed as percentage, wherein the number of stained cells in a control not treated the furan derivative was arbitrarily set as 100% (Tables 14 to 16).

Consider `O=Cc1ccc(COC(=O)Cc2ccccc2)o1` [Compound 32], for which the “Inhibition rate against osteoclast formation, %” value (“Inhibition rate … %” below) reads like this: (0.1 μM) 0%; (1 μM) 23.3%; (10 μM) 50%.

Regarding `O=Cc1ccc(COC(=O)Cc2c(F)cccc2F)o1` [Compound 33], the “Inhibition rate … %” value (0.1 μM) amounted to 0%; the “Inhibition rate … %” value (1 μM) was found to be 3.3%; the “Inhibition rate … %” value (10 μM) was 50%.

On to `O=Cc1ccc(COC(=O)Cc2c(F)cccc2Cl)o1` [Compound 34], for which the “Inhibition rate … %” value (0.1 μM) is 0%; the “Inhibition rate … %” value (1 μM) was found to be 16.7%; the “Inhibition rate … %” value (10 μM) was found to be 36.7%.

Consider `O=Cc1ccc(COC(=O)Cc2cccc(Cl)c2)o1` [Compound 35], for which the “Inhibition rate … %” value (0.1 μM) was found to be 0%; the “Inhibition rate … %” value (1 μM) is 23.33%; the “Inhibition rate … %” value (10 μM) is on record as 43.33%.

On to `O=Cc1ccc(COC(=O)Cc2ccsc2)o1` [Compound 36], for which the “Inhibition rate … %” value (0.1 μM) turned out to be 0%; the “Inhibition rate … %” value (1 μM) is 6.67%; the “Inhibition rate … %” value (10 μM) came to 30%.

In the case of `O=Cc1ccc(COC(=O)Cc2cccc(F)c2)o1` [Compound 37], the “Inhibition rate … %” value runs as follows: (0.1 μM) 0%; (1 μM) 10%; (10 μM) 6.67%.

In the case of `O=Cc1ccc(COC(=O)Cc2ccc3ccccc3c2)o1` [Compound 38], the “Inhibition rate … %” value reads like this: (0.1 μM) 0%; (1 μM) 23.33%; (10 μM) 20%.

Regarding `O=Cc1ccc(COC(=O)Cc2ccc(F)cc2F)o1` [Compound 39], the “Inhibition rate … %” value is, setting by setting: (0.1 μM) 0%; (1 μM) 10%; (10 μM) 56.67%.

Take `O=Cc1ccc(COC(=O)C(c2ccccc2)(c2ccccc2)c2ccccc2)o1` [Compound 40]: the “Inhibition rate … %” value was found to be 0% (0.1 μM), 16.67% (1 μM) and 43.33% (10 μM).

For the compound `COc1cccc(F)c1CC(=O)OCc1ccc(C=O)o1` [Compound 41], the “Inhibition rate … %” value turned out to be 0% (0.1 μM), 6.67% (1 μM) and 56.67% (10 μM).

In the case of `COc1ccc(F)c(CC(=O)OCc2ccc(C=O)o2)c1` [Compound 42], the “Inhibition rate … %” value runs as follows: (0.1 μM) 0%; (1 μM) 23.33%; (10 μM) 53.33%.

`O=Cc1ccc(COC(=O)Nc2cccc(Cl)c2)o1` [Compound 49]: the “Inhibition rate … %” value reads like this: (0.1 μM) 0%; (1 μM) 10%; (10 μM) 0%.

In the case of `O=Cc1ccc(COC(=O)Nc2ccc(Br)cc2)o1` [Compound 50], the “Inhibition rate … %” value reads like this: (0.1 μM) 0%; (1 μM) 10%; (10 μM) 0%.

Consider `CCCCNC(=O)OCc1ccc(C=O)o1` [Compound 53], for which the “Inhibition rate … %” value is given as 0% (0.1 μM), 10% (1 μM) and 36.67% (10 μM).

As for `O=Cc1ccc(COC(=O)Nc2ccc(Cl)c(Cl)c2)o1` [Compound 54], the “Inhibition rate … %” value runs as follows: (0.1 μM) 0%; (1 μM) 0%; (10 μM) 10%.

With `O=Cc1ccc(COC(=O)Nc2ccccc2Cl)o1` [Compound 55], the “Inhibition rate … %” value (0.1 μM) is on record as 0%; the “Inhibition rate … %” value (1 μM) is 20%; the “Inhibition rate … %” value (10 μM) was determined as 20%.

Consider `C=CCc1ccc(OCc2ccc(C(=O)OC)o2)c(OC)c1` [Compound 59], for which the “Inhibition rate … %” value is, setting by setting: (0.1 μM) 0%; (1 μM) 0%; (10 μM) 15.95%.

Consider `COC(=O)c1ccc(COc2ccc(Cl)cc2Cl)o1` [Compound 60], for which the “Inhibition rate … %” value runs as follows: (0.1 μM) 0%; (1 μM) 0%; (10 μM) 32.75%.

For the compound `COC(=O)c1ccc(COc2ccccc2Cl)o1` [Compound 61], the “Inhibition rate … %” value is on record as 0% (0.1 μM), 0% (1 μM) and 11.66% (10 μM).

On to `COC(=O)c1ccc(COc2ccc(Cl)cc2[N+](=O)[O-])o1` [Compound 66], for which the “Inhibition rate … %” value is 0% (0.1 μM), 0% (1 μM) and 13.58% (10 μM).

Consider `COC(=O)c1ccc(COc2ccccc2[N+](=O)[O-])o1` [Compound 67], for which the “Inhibition rate … %” value is, setting by setting: (0.1 μM) 0%; (1 μM) 0%; (10 μM) 15.92%.

For `COC(=O)c1ccc(COc2cc(C)ccc2C(C)C)o1` [Compound 68], the “Inhibition rate … %” value (0.1 μM) amounted to 0% and the “Inhibition rate … %” value (1 μM) is 0%.

For the compound `COC(=O)c1ccc(COc2ccc3c(c2)CCC3)o1` [Compound 70], the “Inhibition rate … %” value came to 0% (0.1 μM), 0% (1 μM) and 3.34% (10 μM).

As for `COC(=O)c1ccc(COc2ccc(Cl)c(C)c2)o1` [Compound 75], the “Inhibition rate … %” value reads like this: (0.1 μM) 0%; (1 μM) 0%; (10 μM) 0.78%.

As for `COC(=O)c1ccc(COc2ccc(I)cc2)o1` [Compound 79], the “Inhibition rate … %” value runs as follows: (0.1 μM) 0%; (1 μM) 0%; (10 μM) 34.65%.

For the compound `COC(=O)c1ccc(COc2ccc(Cl)cc2)o1` [Compound 80], the “Inhibition rate … %” value (0.1 μM) is 0%; the “Inhibition rate … %” value (1 μM) came to 0%; the “Inhibition rate … %” value (10 μM) was determined as 15.19%.

With `COC(=O)c1ccc(CN(C)C)o1` [Compound 85], the “Inhibition rate … %” value (0.1 μM) turned out to be 0%; the “Inhibition rate … %” value (1 μM) stood at 0%; the “Inhibition rate … %” value (10 μM) was 3.75%.

Regarding `COC(=O)c1ccc(CNc2ccccc2)o1` [Compound 89], the “Inhibition rate … %” value reads like this: (0.1 μM) 0%; (1 μM) 0%; (10 μM) 12.6%.

Regarding `COC(=O)c1ccc(CNC(C)(C)C)o1` [Compound 91], the “Inhibition rate … %” value stood at 0% (0.1 μM), 0% (1 μM) and 9.89% (10 μM).

For the compound `COc1ccccc1OCc1ccc(C(=O)OC(C)C)o1` [Compound 94], the “Inhibition rate … %” value runs as follows: (0.1 μM) 0%; (1 μM) 0%; (10 μM) 5.9%.

Consider `CC(C)OC(=O)c1ccc(COc2cc(Cl)ccc2Cl)o1` [Compound 95], for which the “Inhibition rate … %” value reads like this: (0.1 μM) 0%; (1 μM) 0%; (10 μM) 0.97%.

For the compound `COc1ccccc1OCc1ccc(C(=O)Oc2ccc(Cl)cc2)o1` [Compound 97], the “Inhibition rate … %” value came out at 0% (0.1 μM), 0% (1 μM) and 12.75% (10 μM).

Consider `O=C(Oc1ccccc1)c1ccc(COc2ccccc2Cl)o1` [Compound 98], for which the “Inhibition rate … %” value is, setting by setting: (0.1 μM) 0%; (1 μM) 0%; (10 μM) 9.89%.

On to `CCCc1ccc(OCc2ccc(C(=O)O)o2)cc1` [Compound 100], for which the “Inhibition rate … %” value (0.1 μM) turned out to be 0%; the “Inhibition rate … %” value (1 μM) is on record as 0%; the “Inhibition rate … %” value (10 μM) was found to be 10.46%.

With `O=C(O)c1ccc(COc2ccc(F)cc2)o1` [Compound 102], the “Inhibition rate … %” value is given as 0% (0.1 μM), 0% (1 μM) and 5.05% (10 μM).

(Values after patent US20060004088A1, “Furan derivatives for preventing and curing osteoporosis and pharmaceutical compositions containing the same” (OCT INC., priority 2002, published 2006).)
